The values that follow come from patent US20050031597A1, “Cells and improved method for preserving cells” (priority 2003, published 2005).

In this data set the test system is erythrocytic cells. In words: Hemolysis / survival of freeze-dried and rehydrated erythrocytic cells.

Consider `O=S(=O)([O-])[O-].[Zn+2]` [ZnSO4], for which the “hemolysis after freeze-drying and rehydration” value (FIG. 22 [T+αC]+5 min+Zn: α-crystallin 1.2 mg/ml loading, 5 min pre-hydration, 500 μM ZnSO4 in rehydration buffer) was determined as 38%. Besides, the cell survival (α-crystallin, 5 min pre-hydration and 500 μM ZnSO4 combined) is listed as 62%.

Turning to “α-crystallin: member of the small heat shock protein family”, the “cell survival after rehydration” value (1.2 mg/ml α-crystallin in loading plus 0.5 mg/ml α-crystallin in rehydration buffer) is “does not result in higher cell survival”. Besides, the “hemolysis after freeze-drying and rehydration” value (FIG. 22 [T+αC]+5 min: α-crystallin 1.2 mg/ml in loading buffer, pre-hydrated 37° C. 5 min) came out at 47%. For the same compound, the “percent hemolysis after freeze-drying and direct rehydration” value (loaded in 800 mM trehalose, 100 mOsm ADSOL, 6.6 mM Na-phosphate and 1.2 mg/ml α-crystallin (FIG. 21)) is 49%.
